Assay results from ChEMBL document CHEMBL5247586, “Discovery of fusidic acid derivatives as novel STING inhibitors for treatment of sepsis” (Eur J Med Chem, 2022).

Assays:
[1] = Cytotoxicity against mouse RAW264.7 cells assessed as cell viability at 40 uM measured after 24 hrs by MTT assay relative to control; format: toxicity, cell-based; settings: read-out: Activity
[2] = system: RAW264.7; test: Anti inflammatory activity in LPS-induced mouse RAW264.7 cells assessed as inhibition of NO production at 2.5 uM preincubated with compound for 2 hrs followed by LPS stimulation and measured after 24 hrs by griess reagent based assay relative to control; format: functional; settings: time 26 hrs
[3] = system: RAW264.7; test: Anti inflammatory activity in LPS-induced mouse RAW264.7 cells assessed as inhibition of NO production at 5 uM preincubated with compound for 2 hrs followed by LPS stimulation and measured after 24 hrs by griess reagent based assay relative to control; format: functional; settings: time 26 hrs
[4] = system: RAW264.7; test: Anti inflammatory activity in LPS-induced mouse RAW264.7 cells assessed as inhibition of NO production preincubated with compound for 2 hrs followed by LPS stimulation and measured after 24 hrs by griess reagent based assay; format: functional, cell-based

SMILES | viability at 24 h, 40 µM [1] | inhibition at 2.5 µM [2] | inhibition at 5 µM [3] | IC50 [4]
CC(=O)O[C@H]1C[C@@]2(C)[C@@H](C[C@@H](O)[C@H]3[C@@]4(C)CC[C@@H](O)[C@@H](C)[C@@H]4CC[C@@]32C)/C1=C(\CCC=C(C)C)C(=O)NOC(=O)c1ccc([N+](=O)[O-])cc1 | 70.8% | – | – | –
CC(=O)O[C@H]1C[C@@]2(C)[C@@H](C[C@@H](O)[C@H]3[C@@]4(C)CC[C@@H](O)[C@@H](C)[C@@H]4CC[C@@]32C)/C1=C(\CCC=C(C)C)C(=O)O [FUSIDIC ACID] | 91.3% | 2.18% | 14.9% | –
CC(=O)O[C@H]1C[C@@]2(C)[C@@H](C[C@@H](O)[C@H]3[C@@]4(C)CC[C@@H](O)[C@@H](C)[C@@H]4CC[C@@]32C)/C1=C(\CCC=C(C)C)C(=O)NOc1ccc([N+](=O)[O-])cc1 | 56.5% | – | – | –
C=CCONC(=O)/C(CCC=C(C)C)=C1\[C@@H](OC(C)=O)C[C@@]2(C)[C@H]1C[C@@H](O)[C@H]1[C@@]3(C)CC[C@@H](O)[C@@H](C)[C@@H]3CC[C@@]12C | 90.8% | 17.7% | 21.3% | –
CC(=O)O[C@H]1C[C@@]2(C)[C@@H](C[C@@H](O)[C@H]3[C@@]4(C)CC[C@@H](OC(=O)CCSSCCC(=O)N(C)O)[C@@H](C)[C@@H]4CC[C@@]32C)/C1=C(\CCC=C(C)C)C(=O)OCc1ccccc1 | 48.8% | – | – | –
CC(=O)O[C@H]1C[C@@]2(C)[C@@H](C[C@@H](O)[C@H]3[C@@]4(C)CC[C@@H](O)[C@@H](C)[C@@H]4CC[C@@]32C)/C1=C(\CCC=C(C)C)C(=O)NOC1CCCCO1 (some centres undefined) | 2.83% | – | – | –
CC(=O)O[C@H]1C[C@@]2(C)[C@@H](C[C@@H](O)[C@H]3[C@@]4(C)CC[C@@H](OC(=O)CCSSCCC(=O)NOC5CCCCO5)[C@@H](C)[C@@H]4CC[C@@]32C)/C1=C(\CCC=C(C)C)C(=O)OCc1ccccc1 (some centres undefined) | 90.2% | 55.2% | 65.2% | 2.62 µM
C=CCONC(=O)c1ccccc1C(=O)O[C@@H]1CC[C@@]2(C)[C@@H](CC[C@@]3(C)[C@H]2[C@H](O)C[C@H]2/C(=C(\CCC=C(C)C)C(=O)OCc4ccccc4)[C@@H](OC(C)=O)C[C@@]23C)[C@@H]1C | 101% | 24.7% | 39.3% | 8.92 µM
CC(=O)O[C@H]1C[C@@]2(C)[C@@H](C[C@@H](O)[C@H]3[C@@]4(C)CC[C@@H](OC(=O)c5ccccc5C(=O)NOC5CCCCO5)[C@@H](C)[C@@H]4CC[C@@]32C)/C1=C(\CCC=C(C)C)C(=O)OCc1ccccc1 (some centres undefined) | 94.1% | 7.93% | 19.4% | –
CC(=O)O[C@H]1C[C@@]2(C)[C@@H](C[C@@H](O)[C@H]3[C@@]4(C)CC[C@@H](O)[C@@H](C)[C@@H]4CC[C@@]32C)/C1=C(\CCC=C(C)C)C(=O)NOCc1ccccc1 | 0.07% | – | – | –
CC(=O)O[C@H]1C[C@@]2(C)[C@@H](C[C@@H](O)[C@H]3[C@@]4(C)CC[C@@H](OC(=O)CCSSCCC(=O)N(O)C5CCCCC5)[C@@H](C)[C@@H]4CC[C@@]32C)/C1=C(\CCC=C(C)C)C(=O)OCc1ccccc1 | 80.1% | – | – | –
CC(=O)O[C@H]1C[C@@]2(C)[C@@H](C[C@@H](O)[C@H]3[C@@]4(C)CC[C@@H](OC(=O)c5ccccc5C(=O)N5CCN(C)CC5)[C@@H](C)[C@@H]4CC[C@@]32C)/C1=C(\CCC=C(C)C)C(=O)OCc1ccccc1 | 108% | 8.43% | 14.7% | –
CC(=O)O[C@H]1C[C@@]2(C)[C@@H](C[C@@H](O)[C@H]3[C@@]4(C)CC[C@@H](OC(=O)c5ccccc5C(=O)NOCc5ccccc5)[C@@H](C)[C@@H]4CC[C@@]32C)/C1=C(\CCC=C(C)C)C(=O)OCc1ccccc1 | 96% | 8.93% | 11% | –
CC(=O)O[C@H]1C[C@@]2(C)[C@@H](C[C@@H](O)[C@H]3[C@@]4(C)CC[C@@H](OC(=O)CCSSCCC(=O)NOC(C)(C)C)[C@@H](C)[C@@H]4CC[C@@]32C)/C1=C(\CCC=C(C)C)C(=O)OCc1ccccc1 | 76% | – | – | –
CC(=O)O[C@H]1C[C@@]2(C)[C@@H](C[C@@H](O)[C@H]3[C@@]4(C)CC[C@@H](OC(=O)c5ccccc5C(=O)NOC(C)(C)C)[C@@H](C)[C@@H]4CC[C@@]32C)/C1=C(\CCC=C(C)C)C(=O)OCc1ccccc1 | 98.3% | 13.5% | 25.9% | –
CC(=O)O[C@H]1C[C@@]2(C)[C@@H](C[C@@H](O)[C@H]3[C@@]4(C)CC[C@@H](OC(=O)CCSSCCC(=O)NOc5ccc([N+](=O)[O-])cc5)[C@@H](C)[C@@H]4CC[C@@]32C)/C1=C(\CCC=C(C)C)C(=O)OCc1ccccc1 | 103% | 14.9% | 28.4% | –
CC(=O)O[C@H]1C[C@@]2(C)[C@@H](C[C@@H](O)[C@H]3[C@@]4(C)CC[C@@H](O)[C@@H](C)[C@@H]4CC[C@@]32C)/C1=C(\CCC=C(C)C)C(=O)NOC(C)(C)C | 84.3% | – | – | –

SMILES | viability at 24 h, 40 µM [1] | inhibition at 2.5 µM [2] | inhibition at 5 µM [3] | IC50 [4]
O=C(Nc1ccc(I)cc1)c1ccc([N+](=O)[O-])o1 | – | – | – | 1.14 µM
CON(C)C(=O)/C(CCC=C(C)C)=C1\[C@@H](OC(C)=O)C[C@@]2(C)[C@H]1C[C@@H](O)[C@H]1[C@@]3(C)CC[C@@H](O)[C@@H](C)[C@@H]3CC[C@@]12C | 55.5% | – | – | –
CCN1CCN(C(=O)c2ccccc2C(=O)O[C@@H]2CC[C@@]3(C)[C@@H](CC[C@@]4(C)[C@H]3[C@H](O)C[C@H]3/C(=C(\CCC=C(C)C)C(=O)OCc5ccccc5)[C@@H](OC(C)=O)C[C@@]34C)[C@@H]2C)CC1 | 5.62% | – | – | –
CC(=O)O[C@H]1C[C@@]2(C)[C@@H](C[C@@H](O)[C@H]3[C@@]4(C)CC[C@@H](O)[C@@H](C)[C@@H]4CC[C@@]32C)/C1=C(\CCC=C(C)C)C(=O)NOc1ccc([N+](=O)[O-])cc1[N+](=O)[O-] | 15.2% | – | – | –
CC(=O)O[C@H]1C[C@@]2(C)[C@@H](C[C@@H](O)[C@H]3[C@@]4(C)CC[C@@H](OC(=O)c5ccccc5C(=O)n5ccnc5)[C@@H](C)[C@@H]4CC[C@@]32C)/C1=C(\CCC=C(C)C)C(=O)OCc1ccccc1 | 59.5% | – | – | –
CON(C)C(=O)c1ccccc1C(=O)O[C@@H]1CC[C@@]2(C)[C@@H](CC[C@@]3(C)[C@H]2[C@H](O)C[C@H]2/C(=C(\CCC=C(C)C)C(=O)OCc4ccccc4)[C@@H](OC(C)=O)C[C@@]23C)[C@@H]1C | 100% | 24% | 44.5% | 6.92 µM
CC(=O)O[C@H]1C[C@@]2(C)[C@@H](C[C@@H](O)[C@H]3[C@@]4(C)CC[C@@H](OC(=O)c5ccccc5C(=O)N5CCCCC5)[C@@H](C)[C@@H]4CC[C@@]32C)/C1=C(\CCC=C(C)C)C(=O)OCc1ccccc1 | 103% | 16.9% | 30.8% | 11.6 µM
CON(C)C(=O)CCSSCCC(=O)O[C@@H]1CC[C@@]2(C)[C@@H](CC[C@@]3(C)[C@H]2[C@H](O)C[C@H]2/C(=C(\CCC=C(C)C)C(=O)OCc4ccccc4)[C@@H](OC(C)=O)C[C@@]23C)[C@@H]1C | 90.2% | 54.6% | 59.3% | 2.5 µM
CONC(=O)CCSSCCC(=O)O[C@@H]1CC[C@@]2(C)[C@@H](CC[C@@]3(C)[C@H]2[C@H](O)C[C@H]2/C(=C(\CCC=C(C)C)C(=O)OCc4ccccc4)[C@@H](OC(C)=O)C[C@@]23C)[C@@H]1C | 2.32% | – | – | –
CC(=O)O[C@H]1C[C@@]2(C)[C@@H](C[C@@H](O)[C@H]3[C@@]4(C)CC[C@@H](OC(=O)CCSSCCC(=O)NOCc5ccccc5)[C@@H](C)[C@@H]4CC[C@@]32C)/C1=C(\CCC=C(C)C)C(=O)OCc1ccccc1 | 98.4% | 8.17% | 12.5% | –
CC(=O)O[C@H]1C[C@@]2(C)[C@@H](C[C@@H](O)[C@H]3[C@@]4(C)CC[C@@H](OC(=O)c5ccccc5C(=O)n5cccn5)[C@@H](C)[C@@H]4CC[C@@]32C)/C1=C(\CCC=C(C)C)C(=O)OCc1ccccc1 | 76.6% | – | – | –
CONC(=O)/C(CCC=C(C)C)=C1\[C@@H](OC(C)=O)C[C@@]2(C)[C@H]1C[C@@H](O)[C@H]1[C@@]3(C)CC[C@@H](O)[C@@H](C)[C@@H]3CC[C@@]12C | 91.4% | 16.5% | 18.3% | –
CC(=O)O[C@H]1C[C@@]2(C)[C@@H](C[C@@H](O)[C@H]3[C@@]4(C)CC[C@@H](OC(=O)CCSSCCC(=O)NOC(=O)c5ccc([N+](=O)[O-])cc5)[C@@H](C)[C@@H]4CC[C@@]32C)/C1=C(\CCC=C(C)C)C(=O)OCc1ccccc1 | 91% | 33.3% | 44.8% | 10 µM
CC(=O)O[C@H]1C[C@@]2(C)[C@@H](C[C@@H](O)[C@H]3[C@@]4(C)CC[C@@H](OC(=O)c5ccccc5C(=O)NOc5ccc([N+](=O)[O-])cc5)[C@@H](C)[C@@H]4CC[C@@]32C)/C1=C(\CCC=C(C)C)C(=O)OCc1ccccc1 | 1.66% | – | – | –
CC(=O)O[C@H]1C[C@@]2(C)[C@@H](C[C@@H](O)[C@H]3[C@@]4(C)CC[C@@H](OC(=O)c5ccccc5C(=O)N5CCOCC5)[C@@H](C)[C@@H]4CC[C@@]32C)/C1=C(\CCC=C(C)C)C(=O)OCc1ccccc1 | 102% | 28.4% | 44.5% | 7.61 µM
CONC(=O)c1ccccc1C(=O)O[C@@H]1CC[C@@]2(C)[C@@H](CC[C@@]3(C)[C@H]2[C@H](O)C[C@H]2/C(=C(\CCC=C(C)C)C(=O)OCc4ccccc4)[C@@H](OC(C)=O)C[C@@]23C)[C@@H]1C | 106% | 17.3% | 27% | –
